# Laboratory results as given in publication PMC10235067, “Increased renal elimination of endogenous and synthetic pyrimidine nucleosides in concentrative nucleoside transporter 1 deficient mice” (Nature Communications, 2023).
# Where “and” joins values, the source holds several entries; their conditions need not be identical. Equal values may be shown once. Where a name gives a salt, the structure may show the parent alone.
# How the values were obtained:
# [1] = Gemcitabine urine pharmacokinetics (renal excretion) in Slc28a1+/+ and Slc28a1-/- mice
# Method: THU was added to the mouse urine samples upon collection and frozen until analysis. […] Five microliters of the diluted samples were transferred to a 96-well autosampler plate then 10 µL of internal standard mixture was added and mixed. […] The plate was then transferred to the 4 °C autosampler for analysis.
# The chromatographic separation was performed on a Thermo Accucore aQ 2.6 µm, 100 ×2.1 mm column at 30 °C using a gradient with a 10 µL injection volume. The mobiles phases were 1 mM ammonium acetate in deionized water pH 6.8 and acetonitrile. The total run time was 5.5 min. […] The LC–MS/MS analysis was conducted on a Thermo Vanquish UHPLC with a TSQ Quantiva mass spectrometer equipped with an electrospray ionization source.
# CNT1 = conditions: read-out: Km (affinity for CNT1); cited from earlier work
# [2] = cited from earlier work
# [3] = Gemcitabine plasma pharmacokinetics in Slc28a1+/+ and Slc28a1-/- mice; conditions: Gemcitabine in plasma, KO mice, iv gemcitabine 50mg/kg, per mouse
# Method: To collect blood, a 5 mm lancet was used to apply pressure to the submandibular vein and release blood flow. For retro-orbital collection, mice were anesthetized with 3% isoflurane in oxygen, and the blood was collected directly into heparinized capillary tubes by applying slight pressure to the medial canthus of the eye. Cardiac puncture was performed as the final collection method by first euthanizing the mice in a CO2 chamber and immediately performing posterior cardiac puncture by inserting a 27 G needle with a 1 ml syringe attachment into the heart. Once blood collection was completed, gentle pressure was applied to the blood collection area using gauze to stop the bleeding. Thirty microliters of blood was collected into heparinized capillary tubes at each time point, transferred into prelabeled 0.5 ml microcentrifuge tubes containing THU (10 µg/ml; final concentration), and immediately processed and snap-frozen following procedures outlined in the “Gemcitabine plasma pharmacokinetics” methods section.
# Gemcitabine and dFdU plasma concentrations were measured using a modified version of our previously published UHPLC–MS/MS method for nucleosides[74] […] Noncompartmental pharmacokinetic parameters (Cmax, Tmax, AUC, CL, T1/2, etc.) were calculated using WinNonlin 6.2 software (Pharsight; Mountain View, CA). […] The Cmax and Tmax were obtained from the concentration-time curve. The AUC was calculated according to the linear trapezoidal rule up to the last time point with a measurable concentration of the analyte of interest. Significant differences between Slc28a1^+/+ and Slc28a1^−/− mouse pharmacokinetic parameters (p < 0.05) were evaluated with an unpaired two-sided Student’s t-test.
# The resulting supernatant was evaporated to dryness in a SpeedVac, and the remaining residue was reconstituted in mobile phase A for subsequent analysis. […] Subsequent processing was identical to that for the plasma and urine samples.
# Briefly, the analysis was performed on an Imtakt Schzero SM C18 column, 2.1 × 100 mm, 3.0 µm particle size. The eluents used consisted of mobile phase A consisting of 50 mM ammonium formate:50 mM ammonium hydroxide (9:1, v/v) (pH = 8.6) and mobile phase B consisting of 50 mM ammonium formate:50 mM ammonium hydroxide (9:1, v/v):ACN (80:20, v/v) (pH = 8.6). […] The injection volume was 10 μL, and the autosampler temperature was set at 4 °C throughout the analysis.
# The Waters Triple Quadrupole Mass Spectrometer with an ESI source was operated in negative and positive ion mode at a spray voltage of 2.5 kV, capillary temperature of 150 °C, and vaporizer temperature of 250 °C. Compound optimization was performed manually using the MassLynx 4.1 Software AutoTune Wizard (Waters, Milford, MA) by infusion into the mass spectrometer using a T-connector. […] Analyze concentrations were determined and analyzed using MassLynx Mass Spectrometry Software (Waters; Milford, MA).
compound,measurement,setting,value
"Nc1ccn([C@@H]2O[C@H](CO)[C@@H](O)C2(F)F)c(=O)n1 [dFdC, Gemcitabine hydrochloride, reference compound]",Cp (Gemcitabine),"[1]; Figure 5 G, H, I, KO mice, 5 Minutes, individual mice",667.756 µg/mL and 701.121 µg/mL and 742.057 µg/mL and 708.576 µg/mL and 1006.774 µg/mL
same,Cp (Gemcitabine),"[1]; Figure 5 G, H, I, KO mice, 10 Minutes, individual mice",1196.136 µg/mL and 1117.096 µg/mL and 1176.76 µg/mL and 1333.848 µg/mL and 1383.016 µg/mL and 1407.258 µg/mL
same,Cp (Gemcitabine),"[1]; Figure 5 G, H, I, KO mice, 15 Minutes, individual mice",1417.457 µg/mL and 1463.209 µg/mL and 1417.045 µg/mL and 1464.236 µg/mL and 1528.485 µg/mL and 1605.582 µg/mL
same,Cp (Gemcitabine),"[1]; Figure 5 G, H, I, KO mice, 30 Minutes, individual mice",1020.435 µg/mL and 1043.589 µg/mL and 1004.789 µg/mL and 686.314 µg/mL and 637.597 µg/mL
same,Cp (Gemcitabine),"[1]; Figure 5 G, H, I, KO mice, 60 Minutes, individual mice",806.557 µg/mL and 703.249 µg/mL and 814.631 µg/mL and 838.872 µg/mL and 677.262 µg/mL
same,Cp (Gemcitabine),"[1]; Figure 5 G, H, I, KO mice, 120 Minutes, individual mice",1007.916 µg/mL and 1001.638 µg/mL and 923.671 µg/mL and 928.827 µg/mL and 1022.245 µg/mL
same,Cp (Gemcitabine),"[1]; Figure 5 G, H, I, KO mice, 240 Minutes, individual mice",131.108 µg/mL and 117.705 µg/mL and 128.911 µg/mL and 104.939 µg/mL and 51.416 µg/mL and 148.894 µg/mL
same,Cp (Gemcitabine),"[1]; Figure 5 G, H, I, WT mice, 5 Minutes, individual mice",473.332 µg/mL and 486.741 µg/mL and 465.952 µg/mL and 485.933 µg/mL and 493.479 µg/mL
same,Cp (Gemcitabine),"[1]; Figure 5 G, H, I, WT mice, 10 Minutes, individual mice",654.272 µg/mL and 654.234 µg/mL and 642.732 µg/mL and 677.281 µg/mL and 755.524 µg/mL
same,Cp (Gemcitabine),"[1]; Figure 5 G, H, I, WT mice, 15 Minutes, individual mice",869.257 µg/mL and 882.561 µg/mL and 865.564 µg/mL and 871.549 µg/mL and 735.964 µg/mL
same,Cp (Gemcitabine),"[1]; Figure 5 G, H, I, WT mice, 30 Minutes, individual mice",865.074 µg/mL and 694.859 µg/mL and 1051.246 µg/mL and 934.229 µg/mL and 1018.271 µg/mL
same,Cp (Gemcitabine),"[1]; Figure 5 G, H, I, WT mice, 60 Minutes, individual mice",691.965 µg/mL and 701.388 µg/mL and 530.199 µg/mL and 662.975 µg/mL and 688.86 µg/mL
same,Cp (Gemcitabine),"[1]; Figure 5 G, H, I, WT mice, 120 Minutes, individual mice",410.29 µg/mL and 371.477 µg/mL and 406.197 µg/mL and 640.633 µg/mL and 369.675 µg/mL
same,Cp (Gemcitabine),"[1]; Figure 5 G, H, I, WT mice, 240 Minutes, individual mice",394.084 µg/mL and 419.478 µg/mL and 409.47 µg/mL and 387.436 µg/mL and 378.97 µg/mL
same,Dose in Urine (% of total dose administered),"[1]; Slc28a1+/+ mice, single i.v. dFdC 50 mg/kg",7.53%
same,Dose in Urine (% of total dose administered),"[1]; Slc28a1-/- mice, single i.v. dFdC 50 mg/kg",13.73%
same,concentration at 5 min,"[1]; mouse, urine, intravenous, 50 mg/kg, Cp (Gemcitabine), Figure 5 G, H, I, KO mice, 5 Minutes, individual mice",690 µg/mL
same,concentration at 30 min,"[1]; mouse, urine, intravenous, 50 mg/kg, Cp (Gemcitabine), Figure 5 G, H, I, KO mice, 30 Minutes, individual mice",995 µg/mL
same,concentration at 60 min,"[1]; mouse, urine, intravenous, 50 mg/kg, Cp (Gemcitabine), Figure 5 G, H, I, KO mice, 60 Minutes, individual mice",801 µg/mL
same,concentration at 120 min,"[1]; mouse, urine, intravenous, 50 mg/kg, Cp (Gemcitabine), Figure 5 G, H, I, KO mice, 120 Minutes, individual mice",977 µg/mL
same,concentration at 5 min,"[1]; mouse, urine, intravenous, 50 mg/kg, Cp (Gemcitabine), Figure 5 G, H, I, WT mice, 5 Minutes, individual mice",447 µg/mL
same,concentration at 10 min,"[1]; mouse, urine, intravenous, 50 mg/kg, Cp (Gemcitabine), Figure 5 G, H, I, WT mice, 10 Minutes, individual mice",628 µg/mL
same,concentration at 15 min,"[1]; mouse, urine, intravenous, 50 mg/kg, Cp (Gemcitabine), Figure 5 G, H, I, WT mice, 15 Minutes, individual mice",859 µg/mL
same,concentration at 30 min,"[1]; mouse, urine, intravenous, 50 mg/kg, Cp (Gemcitabine), Figure 5 G, H, I, WT mice, 30 Minutes, individual mice",725 µg/mL
same,concentration at 60 min,"[1]; mouse, urine, intravenous, 50 mg/kg, Cp (Gemcitabine), Figure 5 G, H, I, WT mice, 60 Minutes, individual mice",864 µg/mL
same,concentration at 120 min,"[1]; mouse, urine, intravenous, 50 mg/kg, Cp (Gemcitabine), Figure 5 G, H, I, WT mice, 120 Minutes, individual mice",403 µg/mL
same,concentration at 240 min,"[1]; mouse, urine, intravenous, 50 mg/kg, Cp (Gemcitabine), Figure 5 G, H, I, WT mice, 240 Minutes, individual mice",400 µg/mL
same,renal clearance (CLr) in Slc28a1-/- mice higher than in Slc28a1+/+ mice,"[1]; non-compartmentally calculated, single i.v. dFdC 50 mg/kg",126.63%
same,Km,CNT1,12 to 36 µM
same,Log P,[2],−1.5
same,AUCINF_D_obs,[3],916.304 kg·ng·min/mL/mg and 1339.88 kg·ng·min/mL/mg and 778.001 kg·ng·min/mL/mg and 1050.65 kg·ng·min/mL/mg and 1326.68 kg·ng·min/mL/mg and 1607.46 kg·ng·min/mL/mg
same,AUCINF_D_pred,[3],916.913 kg·ng·min/mL/mg and 1340.31 kg·ng·min/mL/mg and 775.108 kg·ng·min/mL/mg and 1031 kg·ng·min/mL/mg and 1323.42 kg·ng·min/mL/mg and 1604.92 kg·ng·min/mL/mg
same,AUCINF_obs,[3],45815.2 ng·min/mL and 66994.2 ng·min/mL and 38900.1 ng·min/mL and 52532.6 ng·min/mL and 66334.2 ng·min/mL and 80373 ng·min/mL
same,AUCINF_pred,[3],45845.6 ng·min/mL and 67015.6 ng·min/mL and 38755.4 ng·min/mL and 51550 ng·min/mL and 66171.1 ng·min/mL and 80246 ng·min/mL
